Results: patent publication US20050176764A1, “Medicine for treating cancer” (KOWA CO., LTD, priority 2002, published 2005)
Counter-ions that a name gives are not always drawn. Each block holds one molecule with its values, some of them ahead of it.

How the values were obtained:
Type in all cases: cell-based
HCT-15 (colon cancer) = assay: Cancer cell growth inhibition, WST-1 colorimetry; settings: Homo sapiens, HCT-15, 48 hours
Procedure: (§1) Cultured human cancer cells were added to a 96-well plate. On the following day, a solution of each of the compounds prepared in Examples 13, 23, 29, 36, and 114 (in five concentrations resulting from 10-fold stepwise dilution: 10^−4, 10^−5, 10^−6, 10^−7, or 10^−8 M) was added, followed by incubation for 48 hours. Subsequently, % growth of the cells was measured through colorimetry by use of a WST-1 (Dojindo) reagent for measurement of cell count. From the measurement data, % growth was calculated by use of the following equation, and 50% growth inhibitory concentration (GI50) was calculated from the dose-response curve of each compound: % growth={[(OD as measured after 48 hours from addition of compound)−(OD at time zero)]/[(OD of control as measured after 48 hours)−(OD at time zero)]}×100.

MCF-7 (breast cancer) = assay: Cancer cell growth inhibition, WST-1 colorimetry; settings: Homo sapiens, MCF7, MCF-7, 48 hours
Procedure: as §1

MKN-45 (stomach cancer) = assay: Cancer cell growth inhibition, WST-1 colorimetry; settings: Homo sapiens, MKN-45, 48 hours
Procedure: as §1

MKN-74 (stomach cancer) = assay: Cancer cell growth inhibition, WST-1 colorimetry; settings: Homo sapiens, MKN-74, 48 hours
Procedure: as §1

[1] = system: cultured human cancer cells; assay: Cancer cell growth inhibition, WST-1 colorimetry, overall statement; settings: result in words, 48 hours
Procedure: as §1

[2] = system: Human umbilical venous endothelial cells (HUVECs); assay: Gene expression analysis (GeneChip HuGene FL array) in TNFα-stimulated HUVECs; settings: Example 10 at 1 μM, TSA at 10 μM
Procedure: Human umbilical venous endothelial cells (HUVECs) were placed in 10 cm dishes (3×10^5 cells/dish). Two days thereafter, Trichostatin A (TSA, produced by Upstate) dissolved in dimethyl sulfoxide (DMSO) and the compound prepared in Example 10 dissolved in DMSO were individually added to a final concentrations of 10 μM and 1 μM, respectively. Each sample was stimulated with TNFα (final concentration: 10 ng/mL, Genzyme-Techne). Four hours later, total RNA was extracted with ISOGEN (Nippon Gene Co., Ltd.). The subsequent procedure was performed in accordance with the manufacturer's protocol (Affymetrix). From the thus obtained total RNA, mRNA was purified by a conventional method. cDNA was synthesized from the purified mRNA, and then biotin-labeled cRNA was synthesized by in vitro transcription. The cRNA was purified and subjected to heat treatment for fragmentation. The fragmented cRNA was used in gene expression analysis.
Method of gene expression analysis: The thus-prepared fragmented cRNA was injected to a HuGene human FL array (Affymetrix), and allowed to hybridize for 16 hours at 45° C. After washing, streptavidin labeled with phycoerythrin, and biotinylated anti-streptavidin antibody were added to each sample in order to cause reaction. Gene expression information was read by use of a dedicated scanner for GeneChip™ (Hewlett Packard). The thus-obtained information was analyzed with GeneChip Software (Affymetrix) for comparison in terms of level of expression.

[3] = out of 52 genes increased twice or more by TNFα

Structure (SMILES): COc1ccc(N(Cc2cncc(-c3cc(OC)c(OC)c(OC)c3)c2)C2CCN(Cc3ccnc(-c4cc(OC)c(OC)c(OC)c4)c3)CC2)cc1 [Example 13, 4-[N-(4-methoxyphenyl)-N-[[5-(3,4,5-trimethoxyphenyl)pyridin-3-yl]methyl]amino]-1-[[2-(3,4,5-trimethoxyphenyl)pyridin-4-yl]methyl]piperidine Trihydrochloride]
GI50 (HCT-15 (colon cancer)): 800 nM
GI50 (MCF-7 (breast cancer)): 700 nM
GI50 (MKN-45 (stomach cancer)): 3000 nM
GI50 (MKN-74 (stomach cancer)): 700 nM
growth inhibitory effect on cultured human cancer cells [1]: strong growth inhibitory effect

Structure (SMILES): COc1cc(OC)cc(N(Cc2ccnc(-c3cc(OC)c(OC)c(OC)c3)c2)C2CCN(Cc3ccnc(-c4cc(OC)c(OC)c(OC)c4)c3)CC2)c1 [Example 23, 4-[N-(3,5-dimethoxyphenyl)-N-[[2-(3,4,5-trimethoxyphenyl)pyridin-4-yl]methyl]amino]-1-[[2-(3,4,5-trimethoxyphenyl)pyridin-4-yl]methyl]piperidine Trihydrochloride]
GI50 (HCT-15 (colon cancer)): 900 nM
GI50 (MCF-7 (breast cancer)): 600 nM
GI50 (MKN-45 (stomach cancer)): 4000 nM
GI50 (MKN-74 (stomach cancer)): 700 nM
growth inhibitory effect on cultured human cancer cells [1]: strong growth inhibitory effect

Structure (SMILES): COc1cc(-c2cc(CN3CCC(N(Cc4ccnc(-c5cc(OC)c(OC)c(OC)c5)c4)c4ccc5c(c4)OCO5)CC3)ccn2)cc(OC)c1OC [Example 29, 4-[N-(3,4-methylenedioxyphenyl)-N-[[2-(3,4,5-trimethoxyphenyl)pyridin-4-yl]methyl]amino]-1-[[2-(3,4,5-trimethoxyphenyl)pyridin-4-yl]methyl] piperidine Trihydrochloride]
GI50 (HCT-15 (colon cancer)): 800 nM
GI50 (MCF-7 (breast cancer)): 700 nM
GI50 (MKN-45 (stomach cancer)): 3000 nM
GI50 (MKN-74 (stomach cancer)): 400 nM
growth inhibitory effect on cultured human cancer cells [1]: strong growth inhibitory effect

Structure (SMILES): CC(/C=C/C(=O)NO)=C\[C@@H](C)C(=O)c1ccc(N(C)C)cc1 [TSA, Trichostatin A, reference compound]
mRNA expression level of ABC transporter B2 ([2]; TNFα 10 ng/mL, 4 h): 66
mRNA expression level of B94 ([2]; TNFα 10 ng/mL, 4 h): 924
mRNA expression level of BCL3 ([2]; TNFα 10 ng/mL, 4 h): 198
mRNA expression level of Cox-2 ([2]; TNFα 10 ng/mL, 4 h): 30
mRNA expression level of EphrinA1 ([2]; TNFα 10 ng/mL, 4 h): 113
mRNA expression level of Gro1 ([2]; TNFα 10 ng/mL, 4 h): 855
mRNA expression level of I kappa B alpha ([2]; TNFα 10 ng/mL, 4 h): 1363
mRNA expression level of IAP homolog B ([2]; TNFα 10 ng/mL, 4 h): 99
mRNA expression level of ICAM-1 ([2]; TNFα 10 ng/mL, 4 h): 2303
mRNA expression level of IFNGR2 ([2]; TNFα 10 ng/mL, 4 h): 209
mRNA expression level of IL-7R ([2]; TNFα 10 ng/mL, 4 h): 44
mRNA expression level of M-Ras-regulated GEF ([2]; TNFα 10 ng/mL, 4 h): 39
mRNA expression level of MCP-1 ([2]; TNFα 10 ng/mL, 4 h): 46
mRNA expression level of Na/K-ATPase beta-1 ([2]; TNFα 10 ng/mL, 4 h): 148
mRNA expression level of Nef associated factor 1 ([2]; TNFα 10 ng/mL, 4 h): 396
mRNA expression level of OB-cadherin-2 ([2]; TNFα 10 ng/mL, 4 h): 62
mRNA expression level of RDC1 ([2]; TNFα 10 ng/mL, 4 h): 21
mRNA expression level of Spliceosomal Protein Sap 49 ([2]; TNFα 10 ng/mL, 4 h): 79
mRNA expression level of TRAF1 ([2]; TNFα 10 ng/mL, 4 h): 262
mRNA expression level of VCAM-1 ([2]; TNFα 10 ng/mL, 4 h): 96
mRNA expression level of beta-galactoside alpha-2; 6-sialyltransferase ([2]; TNFα 10 ng/mL, 4 h): 19
mRNA expression level of caspase-like apoptosis regulatory protein 2 (clarp) ([2]; TNFα 10 ng/mL, 4 h): 50
mRNA expression level of cytoplasmic antiproteinase 2 (CAP2) ([2]; TNFα 10 ng/mL, 4 h): 37
mRNA expression level of ets-2 ([2]; TNFα 10 ng/mL, 4 h): 38
mRNA expression level of exodus-1 ([2]; TNFα 10 ng/mL, 4 h): 1206
mRNA expression level of fractalkine ([2]; TNFα 10 ng/mL, 4 h): 38
mRNA expression level of junB ([2]; TNFα 10 ng/mL, 4 h): 123
mRNA expression level of lymphotoxin beta ([2]; TNFα 10 ng/mL, 4 h): −40
mRNA expression level of metalloproteinase stromelysin-2 ([2]; TNFα 10 ng/mL, 4 h): 69
mRNA expression level of ninjurin1 ([2]; TNFα 10 ng/mL, 4 h): 150
mRNA expression level of p50-NF-kappa B homolog ([2]; TNFα 10 ng/mL, 4 h): 57
number of genes whose expression was enhanced [2, 3]: 6 genes
number of genes whose expression was inhibited [2, 3]: 25 genes

Now from value to molecule, other results behind:

GI50 (HCT-15 (colon cancer)): 1000 nM
GI50 (MCF-7 (breast cancer)): 700 nM
GI50 (MKN-45 (stomach cancer)): 2000 nM
GI50 (MKN-74 (stomach cancer)): 600 nM
Structure (SMILES): COc1cc(-c2cc(CN3CCC(N(C)Cc4ccnc(-c5cc(OC)c(OC)c(OC)c5)c4)CC3)ccn2)cc(OC)c1OC [Example 36, 4-[N-methyl-N-[[2-(3,4,5-trimethoxyphenyl)pyridin-4-yl]methyl]amino]-1-[[2-(3,4,5-trimethoxyphenyl)pyridin-4-yl]methyl]piperidine Tetrahydrochloride]
growth inhibitory effect on cultured human cancer cells [1]: strong growth inhibitory effect

GI50 (HCT-15 (colon cancer)): 800 nM
GI50 (MCF-7 (breast cancer)): 600 nM
GI50 (MKN-45 (stomach cancer)): 2000 nM
GI50 (MKN-74 (stomach cancer)): 200 nM
Structure (SMILES): COc1cc(-c2cncc(CN(c3ccc(SC)cc3)C3CCN(Cc4ccnc(-c5cc(OC)c(OC)c(OC)c5)c4)CC3)c2)cc(OC)c1OC [Example 114]
growth inhibitory effect on cultured human cancer cells [1]: strong growth inhibitory effect
